# According to patent US8507692B2, “Ester compound and use thereof” (Sumitomo Chemical Company, Limited, priority 2010, dated 2013):
# How the values were obtained:
# Format in all cases: in vivo
# [1] = tested on: American cockroaches (Periplaneta fuliginosa); assay: Test Example 7: oil solution spray knock-down test on cockroaches (Periplaneta fuliginosa); conditions: 0.1% (w/v) oil solution, 1.5 ml sprayed; adult cockroaches (Periplaneta fuliginosa); one minute after spraying
# Protocol: Zero point one (0.1) part of the compound of the present invention (4) was dissolved in 10 parts of isopropyl alcohol and the solution was mixed with 89.9 parts of deodorized kerosene to prepare a 0.1% (w/v) oil solution.
# (§1) Six adult American cockroaches (Periplaneta fuliginosa, 3 males and 3 females) were released in a test container (diameter 12.5 cm, 10 cm high, the bottom face is made of 16 mesh metallic wire), the inner face on which butter was applied, and the container was set at the bottom of a test chamber (bottom face: 46 cm×46 cm, height: 70 cm). One point five (1.5) ml of the oil solution of the compound of the present invention (4) was sprayed using a spray gun at a pressure of 0.4 kg/cm^2 from 60 cm higher than the upper face of the container. Thirty seconds after the spraying, the container was pulled out from the chamber. One minutes after spraying, the number of knocked-down cockroaches was counted and a knock-down ratio was determined (repeated twice). The knocked-down ratio was calculated by the following equation. Knocked-down ratio(%)=(Number of knocked-down cockroaches/Number of test cockroaches)×100 The knocked-down ratio of the compound of the present invention (4) was 100%.
# [2] = tested on: German cockroaches (Blattella germanica); assay: Test Example 2: oil solution spray knock-down test on German cockroaches; conditions: 0.00625% (w/v) oil solution, 1.5 ml sprayed, adult German cockroaches
# Protocol: Zero point zero six two five (0.00625) part of the compound of the present inventions (1) to (6) and (9) to (12) was dissolved in 10 parts of isopropyl alcohol and the solution was mixed with 89.99375 parts of deodorized kerosene to prepare a 0.00625% (w/v) oil solution.
# Ten adult German cockroaches (Blattella germanica, 5 males and 5 females) were released in a test container (diameter 8.75 cm, 7.5 cm high, the bottom face is made of 16 mesh metallic wire), the inner face on which butter was applied, and the container was set at the bottom of a test chamber (bottom face: 46 cm×46 cm, height: 70 cm).
# Each 1.5 ml of the oil solution of the compound of the present invention (1) to (6) and (9) to (12) was sprayed using a spray gun at a pressure of 0.4 kg/cm^2 from 60 cm higher than the upper face of the container. Thirty seconds after the spraying, the container was pulled out from the chamber. After a prescribed time, the number of knocked-down cockroaches was counted and a knock-down ratio was determined (repeated once). A knocked-down ratio was calculated by the following equation. Knocked-down ratio(%)=(Number of knocked-down cockroaches/Number of test cockroaches)×100 The results (2 minutes after spraying) are shown in Table 2.
# [3] = tested on: American cockroaches (Periplaneta Americana); assay: Test Example 1: oil solution spray knock-down test on American cockroaches; conditions: 0.1% (w/v) oil solution, 1.5 ml sprayed, adult American cockroaches
# Protocol: Zero point one (0.1) part of the compound of the present inventions (1) to (6) was dissolved in 10 parts of isopropyl alcohol and the solution was mixed with 89.9 parts of deodorized kerosene to prepare a 0.1% (w/v) oil solution.
# as §1, with “Americana,” for “fuliginosa,”, “Each 1.5” for “One point five (1.5)”, “(1) to (6)” for “(4)”, “After a prescribed time,” for “One minutes after spraying,”, “cockroaches)×100” for “cockroaches)×100 The knocked-down ratio of the compound of the present invention (4) was 100%.”
# For comparison, the test was conducted in the same manner as the above, except for using 2,5-dioxo-3-(2-propynyl)imidazolidinylmethyl=(1R)-trans-3-(2-methyl-1-propenyl)-2,2-dimethylcyclopropane carboxylate (compound described in Pesticide Science, 10, p. 291 (1979), hereinafter referred to as the comparative compound (1)) represented by the following formula:
# [drawing 41] and 2,5-dioxo-3-(2-propynyl)imidazolidinylmethyl=(1R)-cis-3-((Z)-2-cyano-2-methoxyethenyl)-2,2-dimethylcyclopropane carboxylate (compound described in JP-A-60-16962, hereinafter referred to as the comparative compound (2)) represented by the following formula: […]
# [4] = tested on: American cockroaches (Periplaneta Americana); assay: Test Example 8: oil solution spray knock-down test on American cockroaches, 3 minutes; conditions: 0.1% (w/v) oil solution, 1.5 ml sprayed, adult American cockroaches
# Protocol: Zero point one (0.1) part of the compound of the present inventions (1) to (6) and (9) to (12) was dissolved in 10 parts of isopropyl alcohol and the solution was mixed with 89.9 parts of deodorized kerosene to prepare a 0.1% (w/v) oil solution.
# as §1, with “Americana,” for “fuliginosa,”, “Each 1.5” for “One point five (1.5)”, “(1) to (6) and (9) to (12)” for “(4)”, “Three” for “One”, “cockroaches)×100” for “cockroaches)×100 The knocked-down ratio of the compound of the present invention (4) was 100%.”
# [5] = tested on: common mosquitoes (Culex pipens pallens); assay: Test Example 3: oil solution spray knock-down test on common mosquitoes in glass chamber; conditions: 0.025% (w/v) oil solution sprayed into 70 cm cubic glass chamber; adult female common mosquitoes; three minutes after spraying
# Protocol: (§2) Zero point zero two five (0.025) part of the compound of the present invention (1) and (13) was dissolved in 10 parts of isopropyl alcohol, and the solution was mixed with 89.975 parts of deodorized kerosene to prepare a 0.025% (w/v) oil solution.
# (§3) Ten adult female common mosquitoes (Culex pipens pallens) were released in a cubic glass chamber having each side of 70 cm. The oil solution of the compound of the present invention (1) and (13) was sprayed into the chamber through a small window on the side of the chamber using a spraying gun at a pressure of 0.9 kg/cm^2. Three minutes after spraying, the number of knocked-down mosquitoes was counted and a knock-down ratio was determined. A knocked-down ratio was calculated by the following equation. Knocked-down ratio(%)=(Number of knocked-down mosquitoes/Number of test mosquitoes)×100
# [6] = tested on: houseflies (Musca domestica); assay: Test Example 4: oil solution spray knock-down test on houseflies in glass chamber; conditions: 0.025% (w/v) oil solution, 0.7 ml sprayed into 70 cm cubic glass chamber; adult houseflies; five minutes after spraying
# Protocol: as §2
# as §3, with “houseflies (Musca domestica)” for “female common mosquitoes (Culex pipens pallens)”, “cm, and 0.7 ml of the” for “cm. The”, “Five” for “Three”, “flies” for “mosquitoes”, “flies/Number” for “mosquitoes/Number”, “flies)×100” for “mosquitoes)×100”
SMILES,Knocked-down ratio [1] [%],Knock-down ratio (%) 2 minutes after spraying [2] [%],Knock-down ratio (%) 2 minutes after spraying [3] [%],Knock-down ratio (%) 3 minutes after spraying [4] [%],Knocked-down ratio [5] [%],Knocked-down ratio [6] [%]
"C#CCN1CC(=O)N(COC(=O)[C@@H]2[C@@H](/C=C(\C#N)SC)C2(C)C)C1=O [compound of the present invention (4), 2,5-dioxo-3-(2-propynyl)imidazolidinylmethyl=(1R)-trans-3-[(1E)-2-cyano-2-(methylthio)ethenyl]-2,2-dimethylcyclopropane carboxylate]",100,100,100,100,,
"C#CCN1CC(=O)N(COC(=O)[C@@H]2[C@@H](C=C(C#N)SCCC)C2(C)C)C1=O [compound of the present invention (3), 2,5-dioxo-3-(2-propynyl)imidazolidinylmethyl=(1R)-trans-3-[(1EZ)-2-cyano-2-(propylthio)ethenyl]-2,2-dimethylcyclopropane carboxylate]",,100,100,100,,
"C#CCN1CC(=O)N(COC(=O)[C@@H]2[C@@H](C=C(C#N)SCCCC)C2(C)C)C1=O [compound of the present invention (5), 2,5-dioxo-3-(2-propynyl)imidazolidinylmethyl=(1R)-trans-3-[(1EZ)-2-cyano-2-(butylthio)ethenyl]-2,2-dimethylcyclopropane carboxylate]",,100,83,100,,
"C#CCN1CC(=O)N(COC(=O)[C@@H]2[C@@H](/C=C(\C#N)SCC)C2(C)C)C1=O [compound of the present invention (13), 2,5-dioxo-3-(2-propynyl)imidazolidinylmethyl=(1R)-trans-3-[(1E)-2-cyano-2-(ethylthio)ethenyl]-2,2-dimethylcyclopropane carboxylate]",,100,,100,100,100
"C#CCN1CC(=O)N(COC(=O)[C@@H]2[C@@H](C=C(C#N)SC)C2(C)C)C1=O (relative stereo) [compound of the present invention (10), 2,5-dioxo-3-(2-propynyl)imidazolidinylmethyl=(1R)-trans-3-[(1EZ)-2-cyano-2-(methylthio)ethenyl]-2,2-dimethylcyclopropane carboxylate]",,100,,100,,
"C#CCN1CC(=O)N(COC(=O)[C@@H]2[C@@H](C=C(C#N)SCC)C2(C)C)C1=O (relative stereo) [compound of the present invention (9), 2,5-dioxo-3-(2-propynyl) imidazolidinylmethyl=(1R)-trans-3-[(1EZ)-2-cyano-2-(ethylthio)ethenyl]-2,2-dimethylcyclopropane carboxylate]",,100,,100,,
"C#CCN1CC(=O)N(COC(=O)[C@@H]2[C@H](/C=C(/C#N)OC)C2(C)C)C1=O [comparative compound (2), 2,5-dioxo-3-(2-propynyl)imidazolidinylmethyl=(1R)-cis-3-((Z)-2-cyano-2-methoxyethenyl)-2,2-dimethylcyclopropane carboxylate, reference compound]",,,42,,,
"C#CCN1CC(=O)N(COC(=O)[C@@H]2[C@@H](C=C(C#N)SC)C2(C)C)C1=O (relative stereo) [compound of the present invention (1), 2,5-dioxo-3-(2-propynyl)imidazolidinylmethyl=(1R)-trans-3-[(1EZ)-2-cyano-2-(methylthio)ethenyl]-2,2-dimethylcyclopropane carboxylate]",,,100,,100,100
"C#CCN1CC(=O)N(COC(=O)[C@@H]2[C@@H](C=C(C)C)C2(C)C)C1=O [comparative compound (1), 2,5-dioxo-3-(2-propynyl)imidazolidinylmethyl=(1R)-trans-3-(2-methyl-1-propenyl)-2,2-dimethylcyclopropane carboxylate, reference compound]",,,58,,,
"C#CCN1CC(=O)N(COC(=O)[C@@H]2[C@@H](C=C(C#N)SCC)C2(C)C)C1=O (relative stereo) [compound of the present invention (2), 2,5-dioxo-3-(2-propynyl)imidazolidinylmethyl=(1R)-trans-3-[(1EZ)-2-cyano-2-(ethylthio)ethenyl]-2,2-dimethylcyclopropane carboxylate]",,,100,,,
"C#CCN1CC(=O)N(COC(=O)[C@@H]2[C@@H](C=C(C#N)SC(C)C)C2(C)C)C1=O [compound of the present invention (6), 2,5-dioxo-3-(2-propynyl)imidazolidinylmethyl=(1R)-trans-3-[(1EZ)-2-cyano-2-(isopropylthio)ethenyl]-2,2-dimethylcyclopropane carboxylate]",,100,92,100,,
